Measured values: patent publication US7482338B2 (priority 2003, dated 2009)

Molecular target: α7 nAChR subtype (Rattus norvegicus, UniProt Q05941)
Format: binding
Details: read-out: KD of radioligand (saturation curve, one site model)

Chain of α7 nAChR subtype (Q05941 23-502 limits assumed): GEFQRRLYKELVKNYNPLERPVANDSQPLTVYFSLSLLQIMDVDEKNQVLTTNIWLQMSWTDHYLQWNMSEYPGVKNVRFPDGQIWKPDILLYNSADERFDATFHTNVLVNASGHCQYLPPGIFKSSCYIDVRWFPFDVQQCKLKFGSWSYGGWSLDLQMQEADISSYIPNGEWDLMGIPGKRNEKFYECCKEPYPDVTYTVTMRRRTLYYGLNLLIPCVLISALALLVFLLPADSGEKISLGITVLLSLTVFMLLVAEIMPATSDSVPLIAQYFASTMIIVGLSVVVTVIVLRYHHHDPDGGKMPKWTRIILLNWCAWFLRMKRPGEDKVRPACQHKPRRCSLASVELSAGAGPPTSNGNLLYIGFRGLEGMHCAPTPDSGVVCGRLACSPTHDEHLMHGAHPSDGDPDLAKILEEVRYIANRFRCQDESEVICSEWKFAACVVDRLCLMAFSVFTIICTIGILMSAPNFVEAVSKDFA

## [^125I]-α-Bungarotoxin [[^125I]-α-BTX]
  Kd: 1.67 nM
